From patent EP0934249B1, “CONFORMATIONALLY RESTRICTED POLYAMINES AND THEIR USE AS ANTINEOPLASTIC AGENTS” (WISCONSIN ALUMNI RESEARCH FOUNDATION, priority 1996, dated 1998)
Structures can show the parent of a compound that is named as a salt.

Experiments:
Type in all cases: cell-based
MCF7 [1] = assay: colony formation (plating efficiency) cell survival assay, standard protocol of Examples 1-8; conditions: Homo sapiens; survival of cultured breast cancer cells MCF7; 4 hours drug exposure, colonies counted day 15-20; read-out: ED50 (the source's name)
Procedure: (§1) Human breast cancer cell line MCF7 was grown in Richter's Improved Modified Eagle's Medium supplemented with 10% fetal bovine serum (FBS) and 2.2 g/L sodium bicarbonate. Human brain cancer cell line U251MG-NCI was grown in Dulbecco's Modified Eagle's Medium supplemented with 10% FBS. Human lung cancer cell line A549 was grown in Ham's F-12K medium (Fisher Scientific, Itasca, Illinois), supplemented with 10% FBS and 2 mM L-glutamine. Human colon cancer cell line HT29 was cultured in McCoy's 5A medium (Gibco, BRL, Gaithersburg, Maryland), supplemented with 10% FBS. Human prostate cancer cell line PC3 was grown in Dulbecco's Modified Eagles Medium supplemented with 5% FBS. The A549 and MCF7 cell lines were cultured in 100 units/mL penicillin and 100 µg/mL streptomycin. HT29 and U251MG cell lines were grown in 50 µg/mL gentamycin. PC3 cell lines were maintained in 1% antibiotic-antimycotic solution (Sigma, St. Louis, Missouri). The cell cultures were maintained at 37°C in 5% CO2/95% humidified air. All cell cultures are available from the American Type Culture Collection, Rockville, Maryland.
Ten standard culture flasks for each drug to be tested were plated with 5 x 10^5 cells of a given type in 5 mL of media and allowed to incubate for 16-24 hours at 37°C.
Fresh stocks of the compounds to be evaluated are prepared. For each drug, two of the ten culture flasks prepared on Day 1 are used as controls. The control flasks are treated with solvent only. Four flasks for each compound are then treated with serially-diluted concentrations of the compound. The remaining flasks are left untouched. The cells are incubated for 4 hours at 37°C.
After 4 hours the control flasks are counted (2 counts for each flask) and the cells per mL calculated based on the average of the control counts. The cells are then re-plated into six 60 mm dishes for each flask from dilutions based on the cells/mL of the control. (In the various test runs, cell concentrations ranged from approximately 50 to approximately 800 cells per mL.)
The cells are monitored for colony formation. When visible, the cells are stained with 0.5% crystal violet (in 95% EtOH) and counted. The plating efficiency for each dish is then calculated. The plating efficiencies of the six dishes for each flask are averaged and the standard deviation is calculated. The fraction of cell survival at each concentration is determined based on the controls.

HT-29 = assay: MTT assay, percent cell survival; conditions: Homo sapiens, HT-29, 144 h; drug concentration that killed 50% of the cultured cells; MTT six days after drug treatment; read-out: ID50(µM) HT-29
Procedure: as §1
(§2) Here, a conventional MTT assay was used to evaluate percent cell survival. Exponentially growing monolayer cells were plated in 96-well plates at a density of 500 cells per well and allowed to grow for 24 hours. Serial dilutions of the drugs were added to the wells. Six days after drug treatment, 25 µl of MTT solution (5 mg/ml) was added to each well and incubated for 4 hours at 37°C. Then 100 µl of lysis buffer (20% sodium dodecyl sulfate, 50% DMF, and 0.8% acetic acid, pH 4.7) was added to each well and incubated for an additional 22 hours. A microplate reader ("EMAX"-brand, Molecular Devices, Sunnyvale, California) set at 570 nm was used to determine the optical density of the cultures. Results are expressed as a ratio of the optical density in drug-treated wells to the optical density in wells treated with vehicle only.
(§3) The ID50 is the drug concentration that killed 50% of the cultured cells.

MCF7 [2] = assay: MTT assay, percent cell survival; conditions: Homo sapiens, MCF7, 144 h; drug concentration that killed 50% of the cultured cells; MTT six days after drug treatment; read-out: ID50(µM) MCF7
Procedure: as §1, §2, §3

PC-3 = assay: MTT assay, percent cell survival; conditions: Homo sapiens, PC-3, 144 h; drug concentration that killed 50% of the cultured cells; MTT six days after drug treatment; read-out: ID50(µM) PC-3
Procedure: as §1, §2, §3

U251MG NCl = assay: MTT assay, percent cell survival; conditions: Homo sapiens, U-251, 144 h; drug concentration that killed 50% of the cultured cells; MTT six days after drug treatment; read-out: ID50(µM) U251MG NCl
Procedure: as §1, §2, §3

A549 = assay: MTT assay, percent cell survival; conditions: Homo sapiens, A549, 144 h; drug concentration that killed 50% of the cultured cells; MTT six days after drug treatment; read-out: ID50(µM) A549
Procedure: as §1, §2, §3

Row | Compound | EC50 (MCF7 [1]) [nM] | IC50 (HT-29) [µM] | IC50 (MCF7 [2]) [µM] | IC50 (PC-3) [µM] | IC50 (U251MG NCl) [µM] | IC50 (A549) [µM]
1 | CCNCCCNCC1CCC1CNCCCNCC (stereo not drawn) [SL-11044, N-Ethyl-N'-(2-(3'-ethylamino-propylaminomethyl)-trans-cyclobutylmethyl)-propane1,3-diaminetetrahydrochloride] | 1790 | 1.6 | > 31.2 | > 31.2 | 0.12 | –
2 | CCNCCCNCC1CC1CNCCCNCC (stereo not drawn) [SL-11038, N-Ethyl-N'-(2-(3'-ethylamino-propylaminomethyl)-trans-cyclopropylmethyl)-propane-1,3-diamine tetrahydrochloride] | 1340 | 1.4 | > 31.2 | 12.4 | – | 0.25
3 | CCNCCCNC/C=C/CNCCCNCC [SL-11048, N,Nl-bis(3-ethylaminopropyl)-(E)-but-2-ene-1,4-diamine tetrahydrochloride, reference compound] | 1490 | 1.4 | > 31.2 | 1.4 | 2 | 0.26
4 | CCNCCCNC/C=C\CNCCCNCC [SL-11047, N,N^1-bis(3-ethylaminapropyl)-(Z)-but-2-ene-1,4-diamine tetrahydrochloride] | 1490 | 1.6 | 9.5 | 3.6 | 0.55 | 0.25
5 | CCNCCCNC[C@H]1CC[C@H]1CNCCCNCC [SL-11043, N-Ethyl-N'-(2-(3'-ethylamino-propylaminomethyl)-cis-cyclobutylmethyl)-propanel,3-diamine tetrahydrochloride] | 1640 | 1.5 | 25.5 | > 31.2 | – | –
6 | CCNCCCNC[C@@H]1C[C@@H]1CNCCCNCC [SL-11037, N-Ethyl-N'-(2-(3'-ethylamino-propylaminomethyl)-cis-cyclopropylmethyl)-propane 1,3-diamine tetrahydrochloride] | 1640 | 1.6 | > 31.2 | 7.4 | – | 0.12
